Data from patent US7579006B2, “Method of treating immune pathologies with low dose estrogen” (Oregon Health and Science University, priority 2000, dated 2009).
Read-outs that look alike come from different tables or passages of the source.

Columns and labels:
female SJL mice = assay: EAE induced with PLP 139-151 in female SJL mice (clinical scores, spinal cord histopathology); assay type: in vivo; settings: for Demyelinated foci/section / Inflammatory foci/section: spinal cord at peak of disease
B10.PL mice = assay: EAE induced with MBP Ac1-11 in B10.PL mice; assay type: in vivo; settings: for inhibition of EAE: B10.PL females
[1] = test system: draining lymph node (DLN) cells; assay: Flow cytometry of activation and adhesion markers on DLN cells of SJL mice with EAE; assay type: in vivo; settings: DLN cells at peak of EAE
Experimental: Immunofluorescent staining for flow cytometry. Draining lymph node (DLN) cells were removed during the peak of clinical symptoms and analyzed for the expression of cell surface proteins by fluorescent staining ex vivo. The following fluorochrome conjugated antibodies obtained from Pharmingen Inc. (San Diego, Calif.) were used for the direct staining of DLN cells: anti-CD4, anti-CD25, anti-CD69, anti-CD95L, anti-CD44, anti-CD62L, anti-CD49d. Two-color immunofluorescent analysis was performed on a FACScan instrument (Becton Dickinson, Mountain View, Calif.) using Cellquest software. For each experiment the cells were stained with isotype control antibodies to establish background staining, and to set the quadrants prior to calculating the percent positive staining cells. […] Alterations in the expression of adhesion or activation markers on T cells are often indicative of functional changes in the cell. Monoclonal antibodies specific for a number of these markers were used to assess whether estrogen therapy altered their expression. Draining lymph node (DLN) cells were recovered from mice during the peak of clinical EAE, incubated with the indicated fluorochrome conjugated monoclonal antibodies, and surface expression measured by fluorescent activated cell analyzer.

splenic T cells = assay: Splenic T cell proliferation and cytokine responses of treated Tg mice with EAE; assay type: in vivo; settings: 0.36 mg pellet, average
Experimental: Proliferation assay. Spleens (SPL) were removed surgically, and single cell suspensions were prepared. Proliferative responses of T cells were determined in 96-well microtiter plates by incubating 4×10^5 spleen cells plus antigen at an optimal concentration of 20 μg/well. Cultures were incubated for 72 hr at 37° C. and 7% CO2, the last 18 hr in the presence of 0.5 μCi ^3H-thymidine. Cells were harvested onto glass fiber filters, and thymidine uptake was determined by liquid scintillation. Mean cpm±SEM were calculated from triplicate wells. The stimulation index (SI) was obtained by dividing cpm from antigen-stimulated wells by cpm from wells with no antigen. SI in cultures stimulated with GST alone was subtracted from the SI induced with GST-BV8S2 protein.
Proliferation assay. Proliferation responses of splenic T cells were determined essentially as described in Example II, except that antigen was used at an optimal concentration of 50 μg/ml.

IL-4 KO mice = assay: EAE induced with MOG 35-55 in IL-4 KO mice (clinical, histopathology); assay type: in vivo; settings: 2.5 mg pellet
Experimental: (§1) Estrogen treatment. Sixty-day release pellets containing 2.5 mg of 17β-estradiol (E2) or vehicle were implanted subcutaneously (s.c) in the scapular region behind the neck using a 12-gauge trochar as described by the manufacturer (Innovative Research of America, Sarasota, Fla.). The mice were implanted one week prior to immunization with MOG 35-55. The concentration of E2 expected in the serum is between 1,500-2,000 pg/ml, which is approximately 5 times less than the levels found during pregnancy.
(§2) Induction of EAE. C57BL/6 and cytokine deficient mice were inoculated s.c in the flanks with 0.2 ml of an emulsion containing 200 μg of MOG 35-55 in saline and an equal volume of complete Freund's Adjuvant (CFA) containing 400 μg of Mycobacterium tuberculosis H37RA (Difco Laboratories, Detroit, Mich.). Disease induction required i.v. administration of pertussis toxin on the day of immunization (25 ng/mouse) and 2 days later (67 ng/mouse). The mice were assessed daily for clinical signs of EAE according to the 7 point scale described in Example I.
(§3) Histopathology. Histopathologic assessment of spinal column section was performed essentially as described in Example I, except that sections were stained with either luxol fast blue-periodic acid schiff-hematoxylin or silver nitrate prior to analysis.
(§4) Statistical analysis. Significant differences in incidence and mortality between untreated and E2 treated mice were assessed by Chi-square analysis. Difference in onset was determined using the two-tailed Student t test. Differences in peak score and cumulative disease index (CDI) were assessed by the Mann-Whitney test. Statistical significance of the frequency of cytokine secreting cells was analyzed using Student's t test for comparisons of two means. Differences in the expression of chemokine and cytokine mRNA were also determined using the Student t test. Values of p<0.05 were considered significant.

IL-10 KO mice = assay: EAE induced with MOG 35-55 in IL-10 KO mice (clinical, histopathology); assay type: in vivo; settings: 2.5 mg pellet
Experimental: as §1, §2, §3, §4

[2] = cited from earlier work

## C[C@]12CC[C@@H]3c4ccc(O)cc4CC[C@H]3[C@@H]1CC[C@@H]2O [17β-estradiol]
Female SJL mice; 0.025 mg/pellet (diestrus)
  CDI (cumulative disease index): 19.2 ± 10.0
  Incidence: 15/18
  Incidence (%): (83%)
  Onset: 15.8 ± 3.5 days
  Peak (disease score): 3.6 ± 1.3
  Relapse: 5/9
  Relapse (%): (56%)
Female SJL mice; 0.1 mg/pellet (diestrus)
  CDI (cumulative disease index): 8.9 ± 3.4
  Incidence: 12/19
  Incidence (%): (63%)
  Onset: 14.5 ± 2.0 days
  Peak (disease score): 2.0 ± 0.9
  Relapse: 2/9
  Relapse (%): (22%)
Female SJL mice; 0.36 mg pellet
  Demyelinated foci/section: 0.5 ± 0.3 foci/section
  Inflammatory foci/section: 1.3 ± 0.8 foci/section
Female SJL mice; 0.36 mg/pellet (estrus)
  CDI (cumulative disease index): 9.8 ± 1.9
  Incidence: 15/19
  Incidence (%): (79%)
  Onset: 15.1 ± 1.3 days
  Peak (disease score): 2.5 ± 0.6
  Relapse: 2/9
  Relapse (%): (22%)
Female SJL mice; 2.5 mg pellet
  Demyelinated foci/section: 0.5 ± 0.4 foci/section
  Inflammatory foci/section: 0.6 ± 0.8 foci/section
Female SJL mice; 2.5 mg/pellet (pregnancy)
  CDI (cumulative disease index): 7.5 ± 7.9
  Incidence: 4/10
  Incidence (%): (40%)
  Onset: 13.8 ± 0.5 days
  Peak (disease score): 2.0 ± 2.1
  Relapse: 0/4
  Relapse (%): (0%)
Female SJL mice; Fisher exact test, same animal model
  comparison of E2 and E3 in incidence or severity of EAE: equally protective
B10.PL mice; 0.18 mg/pellet (diestrus)
  CDT: 5.8 ± 2.9
  Incidence: 3/6
  Incidence (%): 50%
  Onset: 25.7 ± 1.2 days
  Peak (disease score): 1.7 ± 0.92
B10.PL mice; 0.36 mg/pellet (estrus)
  CDT: 13.5 ± 6.2
  Incidence: 15/26
  Incidence (%): 58%
  Onset: 26.5 ± 1.3 days
  Peak (disease score): 2.61 ± 0.60
B10.PL mice; 2.50 mg/pellet (pregnancy)
  CDT: 0 ± 0
  Incidence: 0/15
  Incidence (%): 0%
  Onset: 0 ± 0 days
  Peak (disease score): 0 ± 0
B10.PL mice; 15.0 mg/pellet (high)
  CDT: 1.4 ± 3.8
  Incidence: 2/8
  Incidence (%): 25%
  Onset: 29 ± 1.4 days
  Peak (disease score): 2.0 ± 1.0
B10.PL mice; 2.5 mg pellets
  inhibition of EAE: essentially complete inhibition of EAE
B10.PL mice; 15 mg pellets
  inhibition of EAE: essentially complete inhibition of EAE
B10.PL mice; estrus (0.36 mg pellets) to diestrus levels (0.10 mg pellets)
  inhibition of EAE: substantial inhibition
[1]; 0.36 mg pellet
  CD4, % of Total: 49%
  CD25, % of CD4+ T cells: 5.9%
  CD44, % of CD4+ T cells: 43%
  CD62L, % of CD4+ T cells: 7.0%
  CD69, % of CD4+ T cells: 6.6%
  CD49d, % of CD4+ T cells: 45%
  FASL, % of CD4+ T cells: 2.7%
[1]; 2.5 mg pellet
  CD4, % of Total: 49%
  CD25, % of CD4+ T cells: 6.3%
  CD44, % of CD4+ T cells: 41%
  CD62L, % of CD4+ T cells: 6.7%
  CD69, % of CD4+ T cells: 6.5%
  CD49d, % of CD4+ T cells: 43%
  FASL, % of CD4+ T cells: 4.2%
Splenic T cells
  inhibition of proliferation of MBP-Ac1-11 specific T cells: about 47%
IL-4 KO mice; IL-4 KO
  CDI: 18.4 ± 22.2
  Incidence: 8/11
  Mortality: 0/11
  Onset: 20.6 ± 4.9
  Peak Score: 4.4 ± 1.0
IL-4 KO mice; IL-4KO, spinal cord
  Inflammatory foci/section: 0.0 ± 0.0 Foci/Section
IL-10 KO mice; IL-10 KO
  CDI: 6.5 ± 10.9
  Incidence: 6/17
  Mortality: 0/17
  Onset: 22.0 ± 4.3
  Peak Score: 4.2 ± 0.8
IL-10 KO mice; IL-10KO, spinal cord
  Inflammatory foci/section: 0.0 ± 0.0 Foci/Section
[2]; 0.025 mg pellet
  serum concentration from 60-day release pellet: 5 to 10 pg/mL
[2]; 0.1 mg pellet
  serum concentration from 60-day release pellet: 25 to 50 pg/mL
[2]; 0.36 mg pellet
  serum concentration from 60-day release pellet: 150 to 200 pg/mL
[2]; 1.5 mg pellet
  serum concentration from 60-day release pellet: 800-1,000 pg/ml
[2]; 2.5 mg pellet
  serum concentration from 60-day release pellet: 1,500-2,000 pg/ml
[2]; 5 mg pellet
  serum concentration from 60-day release pellet: 3,000-4,000 pg/ml
[2]; 15 mg pellet
  serum concentration from 60-day release pellet: 9,000-10,000 pg/ml
